Two compounds from patent publication US20220387602A1, “BIFUNCTIONAL DEGRADERS AND THEIR METHODS OF USE” (NOVARTIS AG, priority 2019, published 2022) can be followed below.

Assay [1] deals with T1, BTK (Homo sapiens, UniProt Q06187).
T1 construct: the BTK open reading frame (ORF) was first shuttled from a pcDNA-DEST40-BTK vector; expressed in transfected cells; host or cells: HEK293A (Invitrogen R70507), lentiviral transduction, blasticidin selection
As to the kind of experiment: BTK-GFP protein abundance flow cytometry assay in HEK293A. It counts as cell-based. Conditions: 24 h; for BTK degradation Amax: % protein remaining at the concentration at which maximum degradation is seen, HEK293A; for DC50: concentration at which 50% maximal degradation was observed, HEK293A BTK-GFP sensor cells. In outline: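 HEK293A cells stably expressing bicistronic BTK-GFP-iresRFP were treated 24 h at 37° C with 10-point 1:3 dilutions from 10 μM, DMSO at 0.1%. GFP was read by flow cytometry as median of 5,000 single cells, scaled between RFP-only cells (0%) and DMSO controls (100%). DC50 = concentration at 50% degradation; Amax = % protein remaining at maximal degradation.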
In general terms: In flow cytometry, cells or beads pass a laser one at a time.

In assay [2] the target is T2, ABL2 (Homo sapiens, UniProt P42684).
T2 construct: expressed in transfected cells; host or cells: HEK293A (Invitrogen R70507), lentiviral transduction
T2 sequence (P42684 whole entry, looked up): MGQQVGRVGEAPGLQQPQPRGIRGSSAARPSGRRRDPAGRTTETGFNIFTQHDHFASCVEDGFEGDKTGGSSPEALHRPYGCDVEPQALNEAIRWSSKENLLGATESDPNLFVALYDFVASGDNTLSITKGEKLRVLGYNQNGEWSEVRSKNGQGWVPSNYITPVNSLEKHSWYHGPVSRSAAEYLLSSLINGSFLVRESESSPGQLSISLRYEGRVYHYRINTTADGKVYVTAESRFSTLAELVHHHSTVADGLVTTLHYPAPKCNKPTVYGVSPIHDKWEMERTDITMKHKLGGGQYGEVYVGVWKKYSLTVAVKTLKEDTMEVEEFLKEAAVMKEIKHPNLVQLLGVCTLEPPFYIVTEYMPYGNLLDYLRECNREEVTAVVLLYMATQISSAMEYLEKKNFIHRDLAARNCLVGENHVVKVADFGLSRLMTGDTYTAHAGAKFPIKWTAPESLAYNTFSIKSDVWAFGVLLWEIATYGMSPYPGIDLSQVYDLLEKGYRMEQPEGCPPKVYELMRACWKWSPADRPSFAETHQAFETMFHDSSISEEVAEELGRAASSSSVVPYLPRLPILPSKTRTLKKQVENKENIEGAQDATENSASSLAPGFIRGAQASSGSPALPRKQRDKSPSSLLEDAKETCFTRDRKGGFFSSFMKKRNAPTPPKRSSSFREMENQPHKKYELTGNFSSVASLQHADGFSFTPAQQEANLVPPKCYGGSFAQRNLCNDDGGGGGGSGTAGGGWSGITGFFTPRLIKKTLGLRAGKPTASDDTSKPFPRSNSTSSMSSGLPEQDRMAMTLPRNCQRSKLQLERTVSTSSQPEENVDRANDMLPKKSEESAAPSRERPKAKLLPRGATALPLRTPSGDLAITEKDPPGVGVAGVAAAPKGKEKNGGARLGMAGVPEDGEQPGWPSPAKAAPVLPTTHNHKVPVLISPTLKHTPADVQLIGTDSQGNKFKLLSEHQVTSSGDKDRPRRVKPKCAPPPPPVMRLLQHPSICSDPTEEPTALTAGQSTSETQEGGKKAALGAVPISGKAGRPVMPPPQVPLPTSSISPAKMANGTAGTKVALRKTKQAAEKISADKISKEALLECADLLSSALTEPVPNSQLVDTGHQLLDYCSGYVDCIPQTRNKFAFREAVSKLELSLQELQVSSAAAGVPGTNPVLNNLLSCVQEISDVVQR
Put plainly: GFP-ABL2 protein abundance flow cytometry assay in HEK293A. It counts as cell-based. Conditions: for ABL2 Amax: % protein remaining at the concentration of maximum degradation; for DC50: HEK293A GFP-ABL2 sensor cells, 24 h. The method, then: Degradation of BTK, CSK, ABL2, EPHA4 and YES1 was measured in HEK293A cells (Invitrogen R70507) expressing either BTK-GFP and RFP, CSK-GFP and mCherry, GFP-ABL2 and mCherry, EPHA4-GFP and mCherry, or YES1-GFP and mCherry from a stably integrated bicistronic BTK-GFP-iresRFP, CSK-GFP-CHYSEL-mCherry, GFP-ABL2-CHYSEL-mCherry, EPHA4-GFP-CHYSEL-mCherry, or YES1-GFP-CHYSEL-mCherry construct, respectively. Reduction of the GFP signal measured by flow cytometry served as readout for BTK, CSK, ABL2, EPHA4 and YES1 degradation after degrader treatment.
293A BTK-GFP-Ires-RFP, CSK-GFP-CHYSEL-mCherry, GFP-ABL2-CHYSEL-mCherry, EPHA4-GFP-CHYSEL-mCherry, or YES1-GFP-CHYSEL-mCherry sensor cells were generated by lentiviral vector transduction using the pLenti6-BTK-GFP-Ires-RFP, pLenti6-mCherryCHYSEL-EGFP-ABL2, pLenti6-CSK-GFP-CHYSEL-mCherry, pLenti6-EPHA4-GFP-CHYSEL-mCherry or pLenti6-YES1-GFP-CHYSEL-mCherry sensor construct described before. Lentiviral particles were produced in HEK293FT cells (Invitrogen R70007) by co-transfection of 500 ng pLenti6-BTK-GFP-Ires-RFP or pLenti6-IKZF3-GFP-Ires-RFP, 500 ng delta8.71 and 200 ng pVSVG diluted in 100 μL OptiMEM serum free medium (Invitrogen #11058-021) that was mixed after 5 min preincubation with 3 μL of Lipofectamine2000 (Invitrogen #11668-019) in 97 μL OptiMEM serum free medium. The mix was incubated for another 20 min at RT and then added on 1 mL of a freshly prepared suspension of HEK293FT cells in a well of a 6-well plate (concentration 1.2×10^6 cells/mL). 1 day after transfection, the medium was replaced with 1.5 mL of complete growth medium (DMEM high Glucose+10% FCS+1% L-Glutamine+1% NEAA+1% NaPyr.). 48 h post transfection supernatant containing viral transducing particles was collected and frozen at −80° C.
2 days before transduction with viral particles 1×10^5 HEK293A cells (Invitrogen R70507) were seeded in 2 mL growth medium in a well of a 6-well plate. Infection was performed with 90 μL of collected supernatant containing viral transducing particles in 1 mL medium including 8 µg/mL polybrene. 24 h post infection, stably transfected cells were selected with blasticidin at a concentration of 8 μg/mL referred to as stable HEK293A sensor cells.
Stable HEK293A sensor cells were maintained in complete growth medium (DMEM high Glucose+10% FCS+1% L-Glutamine+1% NEAA+1% NaPyr.) with passaging performed twice per week. […] GFP and RFP are read in the channels called FITC and PE, respectively.
Concentration response curves plotting relative reduction of the GFP signal (measured by flow cytometry) versus 10 compound concentrations (starting concentration 10 μM, 3 fold dilution steps) of the compounds allowed generation of DC50 values.

T1 sequence (Q06187 whole entry): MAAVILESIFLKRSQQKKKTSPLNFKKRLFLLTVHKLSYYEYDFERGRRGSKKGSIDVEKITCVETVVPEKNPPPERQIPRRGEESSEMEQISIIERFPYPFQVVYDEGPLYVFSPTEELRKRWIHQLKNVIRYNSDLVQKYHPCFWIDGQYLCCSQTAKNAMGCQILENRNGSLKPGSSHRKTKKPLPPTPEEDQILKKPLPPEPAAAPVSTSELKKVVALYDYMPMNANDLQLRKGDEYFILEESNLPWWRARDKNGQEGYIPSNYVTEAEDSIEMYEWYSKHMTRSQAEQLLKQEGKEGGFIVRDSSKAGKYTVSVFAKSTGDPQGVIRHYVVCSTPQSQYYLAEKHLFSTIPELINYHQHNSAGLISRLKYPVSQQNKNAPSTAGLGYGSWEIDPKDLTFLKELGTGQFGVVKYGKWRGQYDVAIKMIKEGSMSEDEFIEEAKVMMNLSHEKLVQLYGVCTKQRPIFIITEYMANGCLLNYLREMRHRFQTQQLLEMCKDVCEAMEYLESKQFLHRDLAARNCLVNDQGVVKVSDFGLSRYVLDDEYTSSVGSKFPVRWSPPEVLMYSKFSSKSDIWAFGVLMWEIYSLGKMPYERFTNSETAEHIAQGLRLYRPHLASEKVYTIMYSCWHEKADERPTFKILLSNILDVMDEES

Regarding `COc1ccc(C(=O)N2CCC3(CCN(C(=O)CCCCCCCN4CCN(c5cc(Nc6ncc(C(=O)Nc7c(C)cccc7Cl)s6)nc(C)n5)CC4)CC3)CC2)cc1N1CCC(=O)NC1=O` [compound 06, N-(2-chloro-6-methylphenyl)-2-((6-(4-(8-(9-(3-(2,4-dioxotetrahydropyrimidin-1(2H)-yl)-4-methoxybenzoyl)-3,9-diazaspiro[5.5]undecan-3-yl)-8-oxooctyl)piperazin-1-yl)-2-methylpyrimidin-4-yl)amino)thiazole-5-carboxamide], in assay [1], the “BTK degradation Amax” value worked out at 2.1% and the DC50 came out at 4.7 nM. In assay [2], the “ABL2 Amax” value came out at 22% and the DC50 worked out at 2 nM.

Turning to `COc1ccc(C(=O)N2CCC3(CCN(C(=O)CN4CCN(c5cc(Nc6ncc(C(=O)Nc7c(C)cccc7Cl)s6)nc(C)n5)CC4)CC3)CC2)cc1N1CCC(=O)NC1=O` [compound 07, N-(2-chloro-6-methylphenyl)-2-((6-(4-(2-(9-(3-(2,4-dioxotetrahydropyrimidin-1(2H)-yl)-4-methoxybenzoyl)-3,9-diazaspiro[5.5]undecan-3-yl)-2-oxoethyl)piperazin-1-yl)-2-methylpyrimidin-4-yl)amino)thiazole-5-carboxamide], in assay [1], the “BTK degradation Amax” value is 0.9% and the DC50 was found to be 9.3 nM. Further, in assay [2], the “ABL2 Amax” value stood at 27% and the DC50 stood at 63 nM.
